Assay results: ChEMBL document CHEMBL4270497, “Recent advances (2015-2016) in anticancer hybrids” (Eur J Med Chem, 2017)
≈ marks a conversion by molar mass, not a printed value.

What was measured:
[1] = system: A549; assay: Cytotoxicity in human A549 cells assessed a reduction in cell viability incubated for 48 hrs by MTT assay; format: functional, cell-based; details: A549, 48 h
[2] = system: A549; assay: Antiproliferative activity against human A549 cells incubated for 48 hrs by MTT assay; format: functional, cell-based; details: A549, 48 h
[3] = system: HEK293; assay: Antiproliferative activity against HEK293 cells incubated for 48 hrs by MTT assay; format: cell-based; details: Homo sapiens, HEK293, 48 h
[4] = system: HT-29; assay: Antiproliferative activity against human HT-29 cells incubated for 48 hrs by MTT assay; format: functional, cell-based; details: HT-29, 48 h
[5] = system: DU-145; assay: Antiproliferative activity against human DU145 cells incubated for 48 hrs by MTT assay; format: functional, cell-based; details: DU-145, 48 h
[6] = system: A549; assay: Cytotoxicity in human A549 cells assessed as reduction in cell viability incubated for 48 hrs by MTT assay; format: functional, cell-based; details: A549, 48 h
[7] = system: U-87 MG; assay: Cytotoxicity in human U87MG cells assessed as reduction in cell viability incubated for 48 hrs by MTT assay; format: functional, cell-based, U-87MG ATCC
[8] = system: HT-29; assay: Cytotoxicity in human HT-29 cells assessed as reduction in cell viability incubated for 48 hrs by MTT assay; format: functional, cell-based; details: HT-29, 48 h
[9] = system: PC-3; assay: Cytotoxicity in human PC3 cells assessed as reduction in cell viability incubated for 48 hrs by MTT assay; format: functional, cell-based; details: PC-3, 48 h
[10] = target: Epidermal growth factor receptor (Homo sapiens, UniProt P00533); assay: Inhibition of 6x-His-tagged human EGFR cytoplasmic domain (645 to 1186 amino acids) assessed as reduction in autophosphorylation pre-incubated for 10 mins and measured after 1 hr by DELFIA/time-resolved fluorometry
Sequence of Epidermal growth factor receptor (P00533 whole entry, the tested form may be a part): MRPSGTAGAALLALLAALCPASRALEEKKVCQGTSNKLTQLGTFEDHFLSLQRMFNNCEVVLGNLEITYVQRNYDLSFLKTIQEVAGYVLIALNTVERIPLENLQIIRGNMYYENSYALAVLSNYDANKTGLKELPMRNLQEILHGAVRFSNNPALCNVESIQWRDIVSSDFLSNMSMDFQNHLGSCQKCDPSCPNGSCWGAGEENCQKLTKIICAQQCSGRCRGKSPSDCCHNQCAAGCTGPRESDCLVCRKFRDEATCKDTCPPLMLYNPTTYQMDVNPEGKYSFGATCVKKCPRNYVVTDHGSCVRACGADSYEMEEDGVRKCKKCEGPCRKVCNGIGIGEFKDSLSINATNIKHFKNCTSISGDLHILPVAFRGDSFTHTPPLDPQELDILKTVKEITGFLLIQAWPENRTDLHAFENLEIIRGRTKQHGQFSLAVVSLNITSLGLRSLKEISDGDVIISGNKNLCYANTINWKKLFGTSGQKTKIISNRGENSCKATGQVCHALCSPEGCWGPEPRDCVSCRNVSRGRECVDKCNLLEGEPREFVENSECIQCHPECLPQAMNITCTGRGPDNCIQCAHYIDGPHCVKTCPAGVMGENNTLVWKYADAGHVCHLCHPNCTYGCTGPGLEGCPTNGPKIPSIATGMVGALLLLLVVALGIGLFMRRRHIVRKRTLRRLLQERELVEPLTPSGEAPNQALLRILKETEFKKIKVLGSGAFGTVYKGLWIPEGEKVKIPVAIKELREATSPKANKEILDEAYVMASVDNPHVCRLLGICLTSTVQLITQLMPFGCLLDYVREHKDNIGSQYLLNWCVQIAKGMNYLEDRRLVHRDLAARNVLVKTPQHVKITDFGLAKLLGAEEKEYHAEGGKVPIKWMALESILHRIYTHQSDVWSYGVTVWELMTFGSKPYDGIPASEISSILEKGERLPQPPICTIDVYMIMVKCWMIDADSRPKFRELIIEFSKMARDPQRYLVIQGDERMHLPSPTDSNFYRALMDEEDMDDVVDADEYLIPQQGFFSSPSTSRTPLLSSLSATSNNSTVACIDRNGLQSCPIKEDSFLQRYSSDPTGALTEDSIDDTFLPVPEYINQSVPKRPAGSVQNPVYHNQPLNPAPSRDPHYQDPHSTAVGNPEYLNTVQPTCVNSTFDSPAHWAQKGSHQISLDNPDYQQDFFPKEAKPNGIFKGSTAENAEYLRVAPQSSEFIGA

[11] = system: HeLa; assay: Antiproliferative activity against human HeLa cells incubated for 48 hrs by MTT assay; format: functional, cell-based
[12] = system: MCF7; assay: Antiproliferative activity against human MCF7 cells incubated for 48 hrs by MTT assay; format: functional, cell-based; details: MCF7, 48 h
[13] = system: B16-F10; assay: Antiproliferative activity against mouse B16F10 cells incubated for 48 hrs by MTT assay; format: functional, cell-based; details: B16-F10, 48 h
[14] = system: Panel NCI-60 (60 carcinoma cell lines); assay: Growth inhibition of human NCI60 cells incubated for 48 hrs by SRB assay; format: functional
[15] = system: KB; assay: Cytotoxicity in human KB cells assessed as reduction in cell viability; format: functional, cell-based
[16] = system: MCF7; assay: Cytotoxicity in human MCF7 cells assessed as reduction in cell viability incubated for 48 hrs by MTT assay; format: functional, cell-based; details: MCF7, 48 h
[17] = system: HCT-116; assay: Antiproliferative activity against human HCT116 cells incubated for 48 hrs by MTT assay; format: functional, cell-based; details: HCT-116, 48 h
[18] = target: Vascular endothelial growth factor receptor 1 (Homo sapiens, UniProt P17948); assay: Inhibition of VEGFR1 (unknown origin) using KKKSPGEYVNIEFG substrate and [33P-g-ATP] incubated for 30 mins
Sequence of Vascular endothelial growth factor receptor 1 (P17948 whole entry): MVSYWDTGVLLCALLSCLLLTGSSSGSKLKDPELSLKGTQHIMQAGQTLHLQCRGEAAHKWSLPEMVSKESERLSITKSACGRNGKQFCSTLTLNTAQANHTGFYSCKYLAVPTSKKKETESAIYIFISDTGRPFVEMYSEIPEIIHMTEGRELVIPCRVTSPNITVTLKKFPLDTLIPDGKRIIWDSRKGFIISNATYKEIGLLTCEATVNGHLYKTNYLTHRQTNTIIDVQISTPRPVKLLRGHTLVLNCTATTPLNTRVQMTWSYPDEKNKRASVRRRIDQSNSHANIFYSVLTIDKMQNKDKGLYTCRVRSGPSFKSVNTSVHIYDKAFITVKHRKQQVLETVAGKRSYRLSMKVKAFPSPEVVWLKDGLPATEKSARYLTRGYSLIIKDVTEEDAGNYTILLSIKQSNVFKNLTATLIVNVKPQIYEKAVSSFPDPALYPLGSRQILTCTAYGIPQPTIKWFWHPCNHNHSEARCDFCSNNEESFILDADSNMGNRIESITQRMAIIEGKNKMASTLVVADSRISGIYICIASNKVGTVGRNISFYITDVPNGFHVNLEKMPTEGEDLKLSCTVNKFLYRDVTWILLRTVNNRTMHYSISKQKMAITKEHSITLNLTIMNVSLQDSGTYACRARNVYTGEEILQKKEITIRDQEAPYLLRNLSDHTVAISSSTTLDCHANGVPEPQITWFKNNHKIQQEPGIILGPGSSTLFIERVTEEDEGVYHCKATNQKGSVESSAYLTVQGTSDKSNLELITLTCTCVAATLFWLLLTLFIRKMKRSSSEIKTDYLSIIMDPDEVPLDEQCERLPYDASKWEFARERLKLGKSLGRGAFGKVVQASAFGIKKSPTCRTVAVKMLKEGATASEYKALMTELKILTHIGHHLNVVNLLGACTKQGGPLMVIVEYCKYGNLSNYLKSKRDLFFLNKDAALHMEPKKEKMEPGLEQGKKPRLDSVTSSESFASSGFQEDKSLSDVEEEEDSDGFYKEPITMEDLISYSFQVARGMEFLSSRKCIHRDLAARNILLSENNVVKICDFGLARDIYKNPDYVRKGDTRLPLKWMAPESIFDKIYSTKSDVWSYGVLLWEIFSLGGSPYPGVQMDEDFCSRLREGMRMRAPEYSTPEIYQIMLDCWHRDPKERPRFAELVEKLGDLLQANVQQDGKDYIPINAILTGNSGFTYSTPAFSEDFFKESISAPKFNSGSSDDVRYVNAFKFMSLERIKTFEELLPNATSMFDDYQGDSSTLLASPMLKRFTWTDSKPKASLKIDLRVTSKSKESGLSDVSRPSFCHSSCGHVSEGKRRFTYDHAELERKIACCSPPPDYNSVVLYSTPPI

[19] = system: HUVEC; assay: Inhibition of VEGF-induced cell migration of HUVEC assessed as wound closure level at cytotoxic IC50 incubated for 24 hrs (reference value: 100%); format: functional, Homo sapiens; design: scale not given: the % may be the effect or the level left
[20] = system: K562; assay: Antiproliferative activity against human K562 cells incubated for 48 hrs by MTT assay; format: functional; details: K562, 48 h
[21] = system: Bel-7402; assay: Antiproliferative activity against human Bel7402 cells incubated for 48 hrs by MTT assay; format: functional; details: Bel-7402, 48 h
[22] = system: PC-3; assay: Antiproliferative activity against human PC3 cells incubated for 48 hrs by MTT assay; format: functional; details: PC-3, 48 h
[23] = system: MDA-MB-231; assay: cells; details: Homo sapiens, MDA-MB-231, 24 h
Description: Cytotoxicity in human MDA-MB-231 cells assessed as reduction in cell viability incubated for 24 hrs by MTT assay

## COc1cc(-c2nc(/C=C/C(=O)c3ccc(O)cc3)cc3c2[nH]c2ccccc23)cc(OC)c1OC
[1]
  IC50: < 10 µM

## COc1cc(Cn2cc(C(=O)c3cccnc3Nc3ccc(F)cc3)nn2)cc(OC)c1
[2]
  IC50: 3900 nM
[3]
  IC50: 75.2 µM
[4]
  IC50: 3100 nM
[5]
  IC50: 3000 nM

## COc1ccc(Cn2cc(C(=O)c3cn(-c4ccccc4)nc3-c3ccc(F)cc3)nn2)cc1OC
[6]
  IC50: 2130 nM
[7]
  IC50: 3.76 µM
[8]
  IC50: 2540 nM
[9]
  IC50: 5.87 µM

## O=C1CSC(N2N=C(c3ccncc3)CC2c2ccc(Br)cc2)=N1 (configuration not stated)
[10]
  IC50: 9 nM
[11]
  IC50: 290 nM
[12]
  IC50: 560 nM
[13]
  IC50: 90 nM

## COc1cc(-c2nc(/C=C/C(=O)c3ccc(F)cc3)cc3c2[nH]c2ccccc23)cc(OC)c1OC
[1]
  IC50: < 10 µM

## O=C(/C=C/c1cc2c([nH]c3ccccc32)c(-c2ccc(F)cc2)n1)c1ccc(F)cc1
[1]
  IC50: < 10 µM

## Nc1ccc(C(=O)/C=C/c2cc3c([nH]c4ccccc43)c(-c3ccc(F)cc3)n2)cc1
[1]
  IC50: < 10 µM

## COc1ccc(-c2nc(/C=C/C(=O)c3cc(OC)c(OC)c(OC)c3)cc3c2[nH]c2ccccc23)cc1OC
[1]
  IC50: < 10 µM

## COc1ccc(-c2nc(/C=C/C(=O)c3ccc(N)cc3)cc3c2[nH]c2ccccc23)cc1OC
[1]
  IC50: < 10 µM

## O=C(c1cn(Cc2cccc(Oc3ccccc3)c2)nn1)c1cccnc1Nc1ccc(F)cc1
[2]
  IC50: 1100 nM
[3]
  IC50: 59.6 µM
[4]
  IC50: 200 nM
[5]
  IC50: 100 nM

## CC(=O)N1N=C(c2ccc[nH]2)CC1c1cn(-c2ccccc2)nc1-c1cc2ccccc2o1 (configuration not stated)
[14]
  GI50: 1000 to 2710 nM

## CC[C@]1(O)C[C@H]2CN(CCc3c([nH]c4ccccc34)[C@@](C(=O)OC)(c3cc4c(cc3OC)N(C=O)[C@H]3[C@@](O)(C(=O)OC)[C@H](OC(C)=O)[C@]5(CC)C=CCN6CC[C@]43[C@@H]65)C2)C1 [VINCRISTINE]
[15]
  IC50: 0.46 µg/mL (≈ 0.558 µM)

## COc1cc(-c2nc(/C=C/C(=O)c3ccc(N)cc3)cc3c2[nH]c2ccccc23)cc(OC)c1OC
[1]
  IC50: < 10 µM

## O=Cc1c(-c2cc3cc(Br)ccc3oc2=O)[nH]c2ccccc12
[16]
  IC50: 7.4 µM

## COc1ccc(N/C=C/C(=O)c2cccnc2Nc2cc(OC)c(OC)c(OC)c2)cc1
[2]
  IC50: 510 to 1290 nM
[11]
  IC50: 510 to 1290 nM
[12]
  IC50: 510 to 1290 nM
[17]
  IC50: 510 to 1290 nM

## COc1ccc(-c2nc(/C=C/C(=O)c3ccc(F)cc3)cc3c2[nH]c2ccccc23)cc1OC
[1]
  IC50: < 10 µM

## O=C(/C=C/c1cc2c([nH]c3ccccc32)c(-c2ccc(F)cc2)n1)c1ccc([N+](=O)[O-])cc1
[1]
  IC50: < 10 µM

## O=C(Nc1ccc(F)cc1)c1sccc1Nc1cccc2c1OCCO2
[18]
  IC50: 1900 nM
[19]
  Activity: 20%

## COc1cc(-c2nc(/C=C/C(=O)c3cc(OC)c(OC)c(OC)c3)cc3c2[nH]c2ccccc23)ccc1F
[1]
  IC50: < 10 µM

## COc1cc2c(c(OC)c1OC)C/C(=C\c1cccc3[nH]ccc13)C2=O
[2]
  GI50: 26 to 35 nM
[11]
  GI50: 26 to 35 nM
[20]
  GI50: 26 to 35 nM
[21]
  GI50: 26 to 35 nM
[22]
  GI50: 26 to 35 nM

## COc1cc(-c2nc(/C=C/C(=O)c3ccc(F)cc3)cc3c2[nH]c2ccccc23)ccc1F
[1]
  IC50: < 10 µM

## CCCC(CC)NC(=O)c1c(C)[nH]c(/C=C2\C(=O)Nc3nc(C)c(O)c(C)c32)c1C (configuration not stated)
[23]
  IC50: 3.21 µM
